{"source": "patent US20260200982A1", "about": "“HER RECEPTOR DERIVED PEPTIDES AND METHODS OF USE THEREOF” (Ramot at Tel-Aviv University Ltd., priority 2022, published 2026)", "key": {"[1]": {"tested_on": "U87 glioma cells", "assay_type": "cell-based, human", "details": "U87; 72 hours; FIGS. 4B and 4C; read-out: IC50 (cell viability)", "excerpt": "(§1) Cell lines—Human breast cancer cell lines SKBR3 [Peles E et al. EMBO J. (1993) 12(3):961-71] and MCF7 [Faigenbloom L et al., Mol Syst Biol. (2015) 11(12):845] and human glioblastoma U87 [Goldberg L et al. Cancer Res. (2006) 66(24):11709-17] cell line, as well as Rat-1 fibroblast cells and H-Ras-transformed Rat-1 cells (EJ cells) [Marom M et al. J Biol Chem. (1995) 270(38):22263-70] and human Panc-1 and MIA PaCa-2 pancreatic cell lines (Rak R et al. Oncoscience. 2014 1(1):39-48; Weisz B et al. Oncogene (1999) 18, 2579±2588) were all grown in Dulbecco's modified Eagle's medium (DMEM; Biological Industries, Beithaemek, Israel). Human colorectal cancer cell lines DLD-1 (ATTC Cat No. CCL-221), HCT-116 (ATTC Cat No. CCL-247) and LNCaP prostate cancer cells were grown in Roswell Park Memorial Institute 1640 (RPMI 1640) medium and McCoy's 5A media, respectively (Sigma-Aldrich). All media were supplemented with antibiotics and 10% heat-inactivated fetal bovine serum (FBS; Gibco). Human breast cell line MCF10A [Bott A et al. Oncotarget. (2017) 8(27):43897-43914] was grown in Dulbeco's Modified Eagle's Medium/Nutrient Mixture F-12 HAM medium (DMEM F-12 HAM; Sigma-Aldrich), supplemented with antibiotics, 5% inactivated horse serum (HS; Invitrogen), 2 mM L-glutamine (Biological Industries, Beithaemek, Israel), 0.1 μg/ml cholera toxin (Sigma-Aldrich), 0.5 μg/ml hydrocortisone (Sigma-Aldrich), 10 μg/ml insulin (Biological Industries, Beithaemek, Israel) and 2 ng/ml EGF (R&D Systems). Cells were incubated at 37° C. in 5% CO2 in air, and the medium was changed every 3-4 days. Cells were passaged in trypsin/disodium ethylenediaminetetraacetic acid (Biological Industries, Beithaemek, Israel) when confluency reached 70%. One day prior to treatment the cells were plated at ~50% confluency in a medium supplemented with 10% FBS or 5% HS, accordingly.\n(§2) Methylene blue viability assay—Cells were plated in 96-wells plates at cell densities of 1.5×10^3 (EJ, DLD-1), 3×10^3 (Rat-1, HCT-116, U87), 5×10^3 (SKBR3, MCF7) and 6×10^3 (MCF10A) cells/well. On the following day, cells were treated as indicated, and grown for 72 hours. Cell number determination was performed as described previously. IC-50 values were calculated using a non-linear regression model (logarithmic inhibitor vs. normalized response-variable slope) with the GraphPad Prism 6 software."}, "[2]": {"tested_on": "SKBR3 breast cancer cells", "assay_type": "cell-based, human", "excerpt": "as §1\nas §2, with “On the following day, cells were treated as indicated, and grown for 72 hours.” left out"}, "[3]": {"tested_on": "MCF7 breast cancer cells", "assay_type": "cell-based, human", "details": "MCF7", "excerpt": "as §1\nas §2, with “On the following day, cells were treated as indicated, and grown for 72 hours.” left out"}, "[4]": {"tested_on": "Rat-1 fibroblast cells", "experiment": "Methylene blue viability assay, Rat-1", "assay_type": "cell-based", "details": "FIG. 4C", "excerpt": "(§3) Cell lines—Human breast cancer cell lines SKBR3 [Peles E et al. EMBO J. (1993) 12(3):961-71] and MCF7 [Faigenbloom L et al., Mol Syst Biol. (2015) 11(12):845] and human glioblastoma U87 [Goldberg L et al. Cancer Res. (2006) 66(24):11709-17] cell line, as well as Rat-1 fibroblast cells and H-Ras-transformed Rat-1 cells (EJ cells) [Marom M et al. J Biol Chem. (1995) 270(38):22263-70] and human Panc-1 and MIA PaCa-2 pancreatic cell lines (Rak R et al. Oncoscience. 2014 1(1):39-48; Weisz B et al. Oncogene (1999) 18, 2579±2588) were all grown in Dulbecco's modified Eagle's medium (DMEM; Biological Industries, Beithaemek, Israel). Human colorectal cancer cell lines DLD-1 (ATTC Cat No. CCL-221), HCT-116 (ATTC Cat No. CCL-247) and LNCaP prostate cancer cells were grown in Roswell Park Memorial Institute 1640 (RPMI 1640) medium and McCoy's 5A media, respectively (Sigma-Aldrich). All media were supplemented with antibiotics and 10% heat-inactivated fetal bovine serum (FBS; Gibco). Human breast cell line MCF10A [Bott A et al. Oncotarget. […]\nas §2, with “On the following day, cells were treated as indicated, and grown for 72 hours. Cell number determination was performed as described previously.” left out"}, "[5]": {"tested_on": "ErbB2", "experiment": "Western blot analysis of dissected Panc-1 tumors, ErbB2", "assay_type": "in vivo, human", "details": "Panc-1 tumor lysates; FIGS. 10A-C", "method": "Pancreatic Tumor Growth in Nude Mice—The study was conducted according to the NIH Guidelines for Use and Care of Laboratory Animals and following the approval by Animal Care Committee of the Tel Aviv University. Nude CD1-Nu mice (25-30 g) housed in barrier facilities on a 12-h light/dark cycle one week prior to the injection of tumor cells (day zero). On day zero, 2×10^6 Panc 1 cells in 0.1 ml of PBS were implanted subcutaneously just above the right femoral joint. Tumor size was measured every 3-4 days. When the tumors were apparently seen and the calculated tumor size was 40 mm^3, the animals were divided randomly into two groups of mice (control vehicle treated and myr-NLS (SEQ ID NO: 5) treated; 8 mice per group). Treatment with the myr-NLS (SEQ ID NO: 5) was performed by intraperitoneal injection of 25 μg in 100 μl PBS (or 100 μl PBS for control mice) every day. Tumors size was measured 3 times a week. At the end of the experiment, the mice were sacrificed, and the tumors were dissected and used for further analysis.\nWestern blot analysis—Half of each tumor was homogenized in lysis buffer, using a Potter-Elvehjem manual homogenizer, cleared and kept at −70° C. […] Immunoreactive bands were detected with the enhanced chemiluminescence reagent (Luminata Crescendo Western HRP). Densitometric quantification analysis of the resulted images was done using ImageJ program. […]"}, "[6]": {"tested_on": "MIA PaCa-2 cells", "experiment": "Colony formation assay, MIA PaCa-2", "assay_type": "cell-based, human", "details": "4.5 μM, 72 hours, FIG. 8", "method": "Colony formation assay—Cells were plated onto 12-well plate (6×10^4 cells/well) and treated with either PBS or myr-NLS at the IC50 concentration for 3 days. Cells were collected and replated in 10-cm plates (at 3 dilutions of 1:10, 1:20 and 1:40). After 7-14 days when visible and yet separated colonies were formed, the cells were fixed with 0.1% acetic acid in PBS, and stained with 0.4% crystal violet in 0.1% acetic acid. Total colonies area was calculated using the ImageJ program.\nIn order to test the effect of myr-NLS on cell tumorigenicity, a colony formation assay was performed. To this end, Panc-1 and MIA PaCa-2 cells were treated or untreated for 72 hours with IC50 dose of myr-NLS (SEQ ID NO: 5, 8 μM and 4.5 μM respectively). Cells were then seeded at the same dilutions in new plates until colonies were formed."}, "[7]": {"tested_on": "MIA PaCa-2 pancreatic cancer cells", "experiment": "Methylene blue viability assay, MIA PaCa-2", "assay_type": "cell-based, human", "details": "MiaPaCa2; 72 hours; FIGS. 4B and 4C; read-out: IC50 (cell viability)", "excerpt": "as §3\nas §2, with “On the following day, cells were treated as indicated, and grown for 72 hours. Cell number determination was performed as described previously.” left out"}}, "note": "The star is where a group is joined. Myristoyl = CCCCCCCCCCCCCC(=O)*", "data": [{"substance": "Myr-RRRHIVRKRTLRRLL-OH (Myristoyl-RRRHIVRKRTLRRLL-OH; SMILES CCCCCCCCCCCCCC(=O)N[C@@H](CCCNC(=N)N)C(=O)N[C@@H](CCCNC(=N)N)C(=O)N[C@@H](CCCNC(=N)N)C(=O)N[C@@H](Cc1c[nH]cn1)C(=O)N[C@H](C(=O)N[C@H](C(=O)N[C@@H](CCCNC(=N)N)C(=O)N[C@@H](CCCCN)C(=O)N[C@@H](CCCNC(=N)N)C(=O)N[C@H](C(=O)N[C@@H](CC(C)C)C(=O)N[C@@H](CCCNC(=N)N)C(=O)N[C@@H](CCCNC(=N)N)C(=O)N[C@@H](CC(C)C)C(=O)N[C@@H](CC(C)C)C(=O)O)[C@@H](C)O)C(C)C)[C@@H](C)CC) [myr-NLS]", "values": [{"measurement": "IC50", "setting": "[1]", "result": 32.2, "unit": "µM"}, {"measurement": "viability of SKBR3 breast cancer cells", "setting": "[2]; 80 μM peptide for 72 hours, FIG. 4A", "result": "significantly reduced viability"}, {"measurement": "IC50", "setting": "[2]; SKBR3, 72 hours, FIGS. 4B and 4C, read-out: IC50 (cell viability)", "result": 20.6, "unit": "µM"}, {"measurement": "effect on viability as compared to non-transformed MCF10 cells", "setting": "[2]; SKBR3, FIG. 4C", "result": "much more pronounced"}, {"measurement": "IC50", "setting": "[3]; 72 hours, FIGS. 4B and 4C, read-out: IC50 (cell viability)", "result": 23.5, "unit": "µM"}, {"measurement": "effect on viability as compared to non-transformed MCF10 cells", "setting": "[3]; FIG. 4C", "result": "much more pronounced"}, {"measurement": "viability of non-transformed Rat-1 cells", "setting": "[4]", "result": "had no effect"}, {"measurement": "levels of total ErbB2 in tumors", "setting": "[5]", "result": "reduced"}, {"measurement": "phosphorylated ErbB2 expression in tumors", "setting": "[5]", "result": "reduced"}, {"measurement": "colony formation (total colonies area)", "setting": "[6]", "result": "fewer and smaller colonies"}, {"measurement": "IC50", "setting": "[7]", "result": 3.95, "unit": "µM"}]}]}
